Test results taken from patent US20050261197A1, “Coffee bean extract, method of extraction and composition containing the same” (priority 2004, published 2005).

Assays:
[1] = 11-day body weight gain of rats in the adjuvant-induced arthritis study; assay type: in vivo, male Sprague-Dawley rats; details: for Avg. Final Body wt. / Avg. Weight Gain: oral gavage once per day for 11 days
Procedure: (§1) Rats weighting between 275-310 g were purchased from Animal Technologies Ltd., Kent, Wash. They were male Sprague-Dawley rats. The animals were kept individually in stainless steel cages with free access to water and feed (Harlan Teklan Rodent Diet). The light cycle was maintained at 12 hours light and 12 hours dark. The temperature was maintained at 22° C.±3° C. with a relative humidity of 40 to 70%.
(§2) The test materials were delivered orally (by gavage) once per day for 11 days.
(§3) The test materials were given orally (by gavage) to each of 5 rats per treatment group once per day for 11 days. Administration of the test materials was initiated on the day of induction of inflammation.
(§4) The left hind paw was measured just before sensitization and again on Day 11. The plantar edema inhibitory rate and the body weight gain rate were determined by comparison with the non-sensitized rat groups.

[2] = test system: Adjuvant Induced Arthritis in Rats; assay: Adjuvant-induced arthritis model in rats (paw weight, anti-inflammatory activity); assay type: in vivo, male Sprague-Dawley rats; details: oral gavage once per day for 11 days; for Raw Paw Weight: Day 11, group average
Procedure: Adjuvant-induced arthritis responds to both steroids and non-steroids. The degree of inflammation will be assessed by measuring differences in foot weight and/or the foot volume.
as §1
The composite was prepared by combining the isolated compounds genistein, flavionic acid, diadzien, diadzin and the peptide having the sequence Tyrosine-Glycine-Serine-Arginine-Serine. One milligram of each was mixed into 9 ml of distilled water and 1 ml of alcohol. The mixture was then diluted in order to deliver by daily gavage one and 10 mcg doses per kilo body weight.
as §2
Male Sprague-Dawley rats (275-310 g) were sensitized by injecting Fruend's complete adjuvant (0.5% suspension of killed mycobacterium tuberculosis (H37RA, Difco, in mineral oil)). A 0.1 ml aliquot was administered intradermally at a plantar site on the right hind leg of each rat.
as §3, §4
The paw weights for each group were averaged. Anti-inflammatory activity was determined by comparing paw weights calculated as follows: [formula]
Hydrocortisone was used as a positive control. It is a common anti-inflammatory given to rheumatoid arthritis patients at a dose of 10 mg/kg body weight. The composite of the invention was given at 10 mcg/kg and 1 mcg/kg body weight.

Structure (SMILES): C[C@]12CCC(=O)C=C1CC[C@@H]1[C@@H]2[C@@H](O)C[C@@]2(C)[C@H]1CC[C@]2(O)C(=O)CO [Hydrocortisone]
- Avg. Final Body wt. ([1]; 1 mcg/kg body wt.): 331.0 g
- Avg. Weight Gain ([1]; 1 mcg/kg body wt.): 31.4 g
- reduction in weight gain ([1]; 10 mcg/kg body weight, 11 days, versus controls): ~50%
- Avg. Final Body wt. ([1]; 10 mcg/kg body wt.): 317.0 g
- Avg. Weight Gain ([1]; 10 mcg/kg body wt.): 23.6 g
- Raw Paw Weight ([2]; 1 mcg/kg body wt.): 0.80 g
- Raw Paw Weight ([2]; 10 mcg/kg body wt.): 0.76 g
- inhibition at 0.001 mg/kg ([2]; Rattus norvegicus, 264 h, 1 mcg/kg body wt., calculated from paw weights): 50%
- inhibition at 0.01 mg/kg ([2]; Rattus norvegicus, 264 h, 10 mcg/kg body wt., calculated from paw weights): 58%
